Patent publication US20050137807A1, “Method of visualization of the ADME properties of chemical substances” (priority 2003, published 2005)
Values after ≈ are worked out from the molar mass of the structure shown. Where two headings read alike, the source gives them in different places.

What was measured:
[1] = water solubility, from the literature; cited from earlier work
[2] = membrane affinity as a measure of the lipophilicity (TRANSIL technology); assay type: physicochemical
[3] = target: human serum albumin (Homo sapiens, UniProt P02768); test: binding constant to human serum albumin (TRANSIL technology)
Sequence of human serum albumin (P02768 25-609): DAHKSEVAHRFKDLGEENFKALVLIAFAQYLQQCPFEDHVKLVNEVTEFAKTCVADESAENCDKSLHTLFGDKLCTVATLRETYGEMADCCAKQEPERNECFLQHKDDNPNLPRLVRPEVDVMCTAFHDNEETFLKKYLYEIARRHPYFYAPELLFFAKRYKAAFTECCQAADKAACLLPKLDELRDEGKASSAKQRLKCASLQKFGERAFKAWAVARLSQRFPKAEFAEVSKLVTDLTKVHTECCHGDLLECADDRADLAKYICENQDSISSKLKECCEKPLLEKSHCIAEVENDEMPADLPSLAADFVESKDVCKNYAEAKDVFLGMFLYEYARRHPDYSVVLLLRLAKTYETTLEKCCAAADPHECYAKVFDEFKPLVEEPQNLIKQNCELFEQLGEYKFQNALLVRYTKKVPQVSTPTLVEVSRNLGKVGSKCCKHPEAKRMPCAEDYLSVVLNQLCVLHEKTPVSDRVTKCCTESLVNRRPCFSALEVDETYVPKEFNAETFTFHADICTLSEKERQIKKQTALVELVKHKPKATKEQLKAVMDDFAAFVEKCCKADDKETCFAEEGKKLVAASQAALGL
Source text: The effective molecular weight (MW) is obtained simply from the respective empirical formula of the substance. The waters solubilities and the typical administered dosages of these commercially available products are furthermore known from the literature.
The ADME maps in FIGS. 5 to 10 show by way of example a selection of commercially available pharmaceutical substances. The substance names and the associated experimental measurement values for their physicochemical properties are summarised in Table 1.

[4] = log binding constant to human serum albumin, TRANSIL

Row | Structure (SMILES) | Solubility [1] [µg/mL] | LogMA [2] | LogHSA ([3]; human) | LogHSA [3, 4] | LogHSA [3]
1 | C=CCc1ccccc1OCC(O)CNC(C)C (stereo not shown) [Alprenolol] | 547 (≈ 2190 µM) | 2.699 | – | – | –
2 | CC(C)(O/N=C(\C(=O)N[C@@H]1C(=O)N2C(C(=O)[O-])=C(C[n+]3ccccc3)CS[C@H]12)c1csc(N)n1)C(=O)O [Ceftazidime] | >500 | 1.000 | −2.495 | – | –
3 | CO/N=C(\C(=O)N[C@@H]1C(=O)N2C(C(=O)O)=C(CSc3nc(=O)c(=O)[nH]n3C)CS[C@H]12)c1csc(N)n1 [Ceftriaxone] | 958 (≈ 1730 µM) | 0.903 | −3.585 | – | –
4 | CO/N=C(\C(=O)N[C@@H]1C(=O)N2C(C(=O)O)=C(COC(N)=O)CS[C@H]12)c1ccco1 [Cefuroxime] | 145 (≈ 342 µM) | 0.477 | −2.553 | – | –
5 | Clc1cccc(Cl)c1N=C1NCCN1 [Clonidine] | – | 1.602 | −2.463 | – | –
6 | C[C@]12C[C@H](O)[C@H]3[C@@H](CCC4=CC(=O)CC[C@@]43C)[C@@H]1CC[C@@H]2C(=O)CO [Corticosterone] | 143 (≈ 413 µM) | 2.531 | – | – | –
7 | CNCCCN1c2ccccc2CCc2ccccc21 [Despiramine] | 0.99 (≈ 3.72 µM) | – | – | −3.398 | –
8 | C[C@@H]1C[C@H]2[C@@H]3CCC4=CC(=O)C=C[C@]4(C)[C@@]3(F)[C@@H](O)C[C@]2(C)[C@@]1(O)C(=O)CO [Dexamethasone] | 93 (≈ 237 µM) | – | – | – | –
9 | Cc1onc(-c2c(Cl)cccc2Cl)c1C(=O)N[C@@H]1C(=O)N2[C@@H]1SC(C)(C)[C@@H]2C(=O)O [Dicloxacillin] | – | 2.079 | −4.064 | – | –
10 | C[C@H]1O[C@@H](O[C@H]2[C@@H](O)C[C@H](O[C@H]3[C@@H](O)C[C@H](O[C@H]4CC[C@@]5(C)[C@H](CC[C@@H]6[C@@H]5C[C@@H](O)[C@]5(C)[C@@H](C7=CC(=O)OC7)CC[C@]65O)C4)O[C@@H]3C)O[C@@H]2C)C[C@H](O)[C@@H]1O [Digoxin] | – | 1.477 | – | −2.284 | –
11 | COc1cccc2c1C(=O)c1c(O)c3c(c(O)c1C2=O)C[C@@](O)(C(=O)CO)C[C@@H]3O[C@H]1C[C@H](N)[C@H](O)[C@H](C)O1 [Doxorubicin] | 93 (≈ 171 µM) | 2.322 | – | −1.886 | –
12 | CCOC(=O)[C@H](CCc1ccccc1)N[C@@H](C)C(=O)N1CCC[C@H]1C(=O)O [Enalapril] | – | 1.000 | −2.959 | – | –
13 | CCn1cc(C(=O)O)c(=O)c2cc(F)c(N3CCNCC3)nc21 [Enoxacin] | 34300 (≈ 107000 µM) | 0.954 | −2.278 | – | –
14 | CN1CCN(c2c(F)cc3c(=O)c(C(=O)O)cn(CCF)c3c2F)CC1 [Fleroxacin] | – | 1.301 | −2.523 | – | –
15 | OC(Cn1cncn1)(Cn1cncn1)c1ccc(F)cc1F [Fluconazole] | 1086 (≈ 3550 µM) | – | – | – | –
16 | CN1C(=O)CN=C(c2ccccc2F)c2cc([N+](=O)[O-])ccc21 [Flunitrazepam] | 72.8 (≈ 232 µM) | 2.477 | – | – | –
17 | COc1ccc(Cl)cc1C(=O)NCCc1ccc(S(=O)(=O)NC(=O)NC2CCCCC2)cc1 [Glibenclamid] | – | 2.301 | – | – | −6.221
18 | N=C(N)N/N=C/c1c(Cl)cccc1Cl [Guanabenz] | 1055 (≈ 4570 µM) | 0.602 | −3.745 | – | –
19 | O=C(CCCN1CCC(O)(c2ccc(Cl)cc2)CC1)c1ccc(F)cc1 [Haloperidol] | – | 3.723 | −2.745 | – | –
20 | CN(C)CCCN1c2ccccc2CCc2ccccc21 [Imipramine] | 1 (≈ 3.57 µM) | 3.190 | −3.301 | – | –
21 | COC(=O)C1=C(C)NC(C)=C(C(=O)OC(C)C)C1c1cccc2nonc12 (stereo not shown) [Isradipin] | 49 (≈ 132 µM) | 3.699 | – | −4.301 | –
22 | CC(CCc1ccccc1)NCC(O)c1ccc(O)c(C(N)=O)c1 (stereo not shown) [Labetalol] | 73 (≈ 222 µM) | 3.620 | – | – | –
23 | Cc1ccccc1N1C(=O)c2cc(S(N)(=O)=O)c(Cl)cc2NC1C (stereo not shown) [Metolazone] | – | 1.531 | −4.201 | – | –
24 | COCCc1ccc(OCC(O)CNC(C)C)cc1 (stereo not shown) [Metoprolol] | – | 1.591 | −2.000 | – | –
25 | CN(Cc1cnc2nc(N)nc(N)c2n1)c1ccc(C(=O)N[C@@H](CCC(=O)O)C(=O)O)cc1 [Metotrexate] | 26000 (≈ 57200 µM) | 1.176 | – | −3.796 | –
26 | CCN(CC)CCNC(=O)c1ccc(NC(C)=O)cc1 [N-Acetylprocainamide] | >1000 | 1.176 | – | −2.268 | –

Row | Structure (SMILES) | Solubility [1] [µg/mL] | LogMA [2] | LogHSA ([3]; human) | LogHSA [3, 4] | LogHSA [3]
27 | CC(C)(C)NCC(O)COc1cccc2c1CC(O)C(O)C2 (stereo not shown) [Nadolol] | 22400 (≈ 72400 µM) | 0.602 | – | – | –
28 | COC(=O)C1=C(C)NC(C)=C(C(=O)OCC(C)C)C1c1ccccc1[N+](=O)[O-] (stereo not shown) [Nisoldipine] | 25 (≈ 64.4 µM) | – | −5.319 | – | –
29 | CCOC(=O)C1=C(C)NC(C)=C(C(=O)OC)C1c1cccc([N+](=O)[O-])c1 (stereo not shown) [Nitrendipine] | 77 (≈ 214 µM) | – | −4.824 | – | –
30 | CCn1cc(C(=O)O)c(=O)c2cc(F)c(N3CCNCC3)cc21 [Norfloxacin] | – | 0.602 | −3.000 | – | –
31 | Cc1nccn1CC1CCc2c(c3ccccc3n2C)C1=O (stereo not shown) [Ondansetron] | 5.7 (≈ 19.4 µM) | 2.672 | −3.237 | – | –
32 | C=CCOc1ccccc1OCC(O)CNC(C)C (stereo not shown) [Oxprenolol] | – | 2.301 | −3.301 | – | –
33 | CC(=O)Nc1ccc(O)cc1 [Paracetamol] | – | 0.778 | −2.000 | – | –
34 | CC1(C)S[C@@H]2[C@H](NC(=O)Cc3ccccc3)C(=O)N2[C@H]1C(=O)O [Penicilin G] | 50 (≈ 150 µM) | 1.041 | – | −4.301 | –
35 | CC(C)=CCN1CCC2(C)c3cc(O)ccc3CC1C2C (stereo not shown) [Pentazocin] | – | 2.633 | – | −2.510 | –
36 | CCCC(C)C1(CC)C(=O)NC(=O)NC1=O (stereo not shown) [Pentobarbital] | – | 2.176 | – | −2.523 | –
37 | CC1(C)S[C@@H]2[C@H](NC(=O)COc3ccccc3)C(=O)N2[C@H]1C(=O)O [Phenoxymethyl penicillinic acid] | – | 1.146 | – | – | −3.102
38 | O=C1NC(=O)C(c2ccccc2)(c2ccccc2)N1 [Phenytoin] | 1267 (≈ 5020 µM) | 2.778 | −3.639 | – | –
39 | CC(C)NCC(O)COc1cccc2[nH]ccc12 (stereo not shown) [Pindolol] | – | 2.398 | −2.699 | – | –
40 | CN1C(C(=O)Nc2ccccn2)=C(O)c2ccccc2S1(=O)=O [Piroxicam] | 521 (≈ 1570 µM) | 2.079 | −5.301 | – | –
41 | CCCN(CCC)S(=O)(=O)c1ccc(C(=O)O)cc1 [Probenecid] | 27.1 (≈ 95 µM) | 1.322 | −4.004 | – | –
42 | CC(=O)[C@H]1CC[C@H]2[C@@H]3CCC4=CC(=O)CC[C@]4(C)[C@H]3CC[C@]12C [Progesteron] | – | 3.843 | – | −6.189 | –
43 | CN(C)CCCN1c2ccccc2Sc2ccccc21 [Promazine] | – | 3.823 | – | −3.301 | –
44 | CC(CN1c2ccccc2Sc2ccccc21)N(C)C (stereo not shown) [Promethazine] | – | 3.992 | −3.028 | – | –
45 | CC(C)NCC(O)c1ccc(NS(C)(=O)=O)cc1 (stereo not shown) [Sotalol] | – | 1.301 | −1.678 | – | –
46 | Cc1nnc(NS(=O)(=O)c2ccc(N)cc2)s1 [Sulfamethizole] | – | 1.000 | −4.000 | – | –
47 | NC(=O)N1C(=O)/C(=C(\O)c2cccs2)c2cc(Cl)ccc21 [Tenidap] | 2676 (≈ 8340 µM) | – | – | – | –
48 | COc1cc2nc(N3CCN(C(=O)C4CCCO4)CC3)nc(N)c2cc1OC (stereo not shown) [Terazosin] | 205 (≈ 529 µM) | 1.785 | – | – | –
49 | Cn1c(=O)c2[nH]cnc2n(C)c1=O [Theophiline] | 2800 (≈ 15500 µM) | 0.886 | – | – | –
50 | CCCCNC(=O)NS(=O)(=O)c1ccc(C)cc1 [Tolbutamid] | 109 (≈ 403 µM) | – | – | – | –
51 | NC[C@H]1CC[C@H](C(=O)O)CC1 [Tranexamic acid] | – | −0.301 | −4.000 | – | –
52 | OC(CCN1CCCCC1)(c1ccccc1)C1CCCCC1 (stereo not shown) [Trihexylphenidyl] | – | 2.415 | – | −3.006 | –
